Assay results from patent US20050238642A1, “Modified bouganin proteins, cytotoxins and methods and uses thereof” (priority 2004, published 2005).

Legend:
[1] = test system: cell-free protein synthesis; test: Cell-free protein synthesis assay (luciferase, coupled transcription/translation); assay type: biochemical; design: key to Activity in luciferase assay: ++: same or higher than WT protein.; +: within 2-fold of WT activity.; +/−: within 3-fold of WT activity.; −−: less than one-third of WT activity; details: for Activity in luciferase assay: relative to wild-type protein
From the text: The term “biological activity” as used herein is the ability of the modified or non-modified bouganin protein to inhibit protein synthesis on ribosomes, which can be assessed in a number of ways. It should be noted that a modified bouganin protein will still have biological activity even if such activity is lower than that of the non-modified protein, however it would need to have some level of detectable activity. For example, the biological activity of the modified or non-modified bouganin protein can be assessed by identifying their N-glycosidase activity, and in particular with sufficient activity to provide significant inhibition of protein translation. One such suitable assay involves testing the activity of the variant bouganin proteins in comparison to non-modified bouganin in a cell-free protein synthesis assay. A coupled transcription/translation mix containing methionine, DNA encoding the reporter protein luciferase and serial dilutions of non-modified and modified bouganin protein are co-incubated. The levels of translated luciferase are readily detected using a luminescence counter following addition of a substrate reagent. The measured luminescence is inversely proportional to the bouganin N-glycosidase activity present in the reaction. It is usual to provide a negative control such as an in-active bouganin protein, for example containing a Y70A substitution.
The biological activity of the proteins of the invention can equally be assessed in many ways. In one embodiment, modified bouganin molecules are identified with N-glycosidase activity, and in particular with sufficient activity to provide significant inhibition of protein translation. One such suitable assay involves testing the activity of the modified bouganin proteins in comparison to non-modified bouganin in a cell-free protein synthesis assay. A coupled transcription/translation mix containing methionine, DNA encoding the reporter protein luciferase and serial dilutions of non-modified and modified bouganin proteins are co-incubated. The levels of translated luciferase are readily detected using a luminescence counter following addition of a substrate reagent. The measured luminescence is inversely proportional to the bouganin N-glycosidase activity present in the reaction. It is usual to provide a negative control such as an in-active bouganin protein for example containing a Y70A substitution.
The activity of the wild-type and modified (mutant) bouganin proteins was tested by measuring their ability to inhibit protein synthesis in a cell-free protein synthesis assay.
A mixture of 10 μl TNT Coupled Transcription/Translation mix (Promega), 20 […] methionine, 120 ng pT7 luciferase DNA (Promega) and serial dilutions of WT and mutant bouganin protein in a final volume of 12.5 μl were incubated at 30° C. for one hour, after which the reaction was stopped by addition of 100 μl “SteadyGlow” luciferase assay reagent (Promega). The luciferase activity was measured using a Wallac luminescence counter. Active bouganin protein is detected as a decrease in measured luciferase activity. Each modified bouganin protein was tested in at least 5 concentrations, with each data point in duplicate. Positive and negative controls were included in each experiment.
In each instance results are expressed relative to wild-type protein activity.

[2] = test system: PBMCs (peripheral blood mononuclear cells) from naive donors; test: Naive human T-cell proliferation assay (3H-thymidine incorporation, stimulation index); assay type: cell-based
Protocol: Accordingly, in the present studies, 89 synthetic 15-mer peptides (as listed in Table 1) were used in T-cell proliferation assays with PBMCs (peripheral blood mononuclear cells) from naive donors (i.e. no known sensitization to bouganin). 20 donor PBMC samples were selected to achieve an optimal coverage of MHC class II allotypes. PBMCs were stimulated with individual peptides in triplicate cultures for 7 days before proliferation was assessed by ^3H-thymidine incorporation. All peptides were diluted at two different concentrations: 1 μM and 5 μM. The stimulation indices (SI) were calculated as the amount of ^3H incorporated into the cells, divided by the amount of ^3H incorporated in mock-stimulated controls.
The peptides were used in T-cell proliferation assays with PBMCs (peripheral blood mononuclear cells) from naive donors (i.e. no known sensitization to bouganin). 20 donor PBMC were selected to get an optimal coverage of MHC class II allotypes. The allotypic coverage is in excess of 85%.
PBMCs were stimulated with individual peptides in triplicate cultures for 7 days before proliferation was assessed by ^3H-thymidine (^3H-Thy) incorporation. All peptides were tested at two different concentrations (1 μM and 5 μM). Stimulation indices (S.I.) were calculated as the amount of ^3H incorporated, divided by the amount of ^3H incorporated in mock-stimulated control cells.
Buffy coats from human blood stored for less than 12 hours were obtained from the National Blood Service (Addenbrooks Hospital, Cambridge, UK). Ficoll-paque was obtained from Amersham Pharmacia Biotech (Amersham, UK). Serum free AIM V media for the culture of primary human lymphocytes and containing L-glutamine, 50 μg/ml streptomycin, 10 μg/ml gentomycin and 0.1% human serum albumin was from Gibco-BRL (Paisley, UK). Synthetic peptides were obtained from Eurosequence (Groningen, The Netherlands) and Babraham Technix (Cambridge, UK).
Erythrocytes and leukocytes were separated from plasma and platelets by gentle centrifugation of buffy coats. The top phase (containing plasma and platelets) was removed and discarded. Erythrocytes and leukocytes were diluted 1:1 in phosphate buffered saline (PBS) before layering onto 15 ml ficoll-paque (Amersham Pharmacia, Amersham UK). Centrifugation was done according to the manufacturers recommended conditions and PBMCs were harvested from the serum+PBS/ficoll paque interface. PBMCs were mixed with PBS (1:1) and collected by centrifugation. The supernatant was removed and discarded and the PBMC pellet resuspended in 50ml PBS. Cells were again pelleted by centrifugation and the PBS supernatant discarded. Cells were resuspended using 50 ml AIM V media and at this point counted and viability assessed using trypan blue dye exclusion. Cells were again collected by centrifugation and the supernatant discarded. Cells were resuspended for cryogenic storage at a density of 3×10^7 per ml. The storage medium was 90% (v/v) heat inactivated AB human serum (Sigma, Poole, UK) and 10% (v/v) DMSO (Sigma, Poole, UK). Cells were transferred to a regulated freezing container (Sigma) and placed at −70° C. overnight. When required for use, cells were thawed rapidly in a water bath at 37° C. before transferring to 10ml pre-warmed AIM V medium.
PBMC were stimulated with protein and peptide antigens in a 96 well flat bottom plate at a density of 2×10^5 PBMC per well. PBMC were incubated for 7 days at 37° C. before pulsing with ^3H-Thy (Amersham-Pharmacia, Amersham, UK). […] C-32=sequence […] from Flu haemagglutinin residues 307-319 (SEQ ID NO:127). C-49=sequence […] from Chlamydia HSP 60 (SEQ ID NO:128).
Peptides were dissolved in DMSO to a final concentration of 10 mM, these stock solutions were then diluted 1/500 in AIM V media (final concentration 20 μM). Peptides were added to a flat bottom 96 well plate to give a final concentration of 1 and 5 μM in 100 μl. […]

| Substance | Activity in luciferase assay ([1]; single substitution variants) | further results |
| --- | --- | --- |
| Y133A: modified bouganin protein with substitution Y133A | ++ |  |
| EIAKFFLIVIQMVSE [peptide 51, bouganin 15-mer peptide, first amino acid 151] |  | S.I. (stimulation index) ([2]; donor 14): > 1.9 |
| V123Q: modified bouganin protein with substitution V123Q | ++ |  |
| E151T I152E | −− |  |
| F155H: modified bouganin protein with substitution F155H | −− |  |
| DLELGVYKLEFSIEA [compound 43, bouganin 15-mer peptide, first amino acid 127] |  | T cell proliferation (in words) ([2]; compared with peptide 44): lower level T cell proliferation |
| Y70A: inactive bouganin with Y70A substitution, negative control (SEQ ID NO. 129) [reference compound] | −− |  |
| Y133K: modified bouganin protein with substitution Y133K | ++ |  |
| D127A: modified bouganin protein with substitution D127A | ++ |  |
| Y133G: modified bouganin protein with substitution Y133G | ++ |  |
| V123S: modified bouganin protein with substitution V123S | −− |  |
| IVEDLDGDELEILEP [peptide 88, 15-mer peptide of the unprocessed form of bouganin, first amino acid 261] |  | presence of T cell epitope ([2]; compilation of 20 donors, 1 μM and 5 μM): T cell epitopes |
| V123H: modified bouganin protein with substitution V123H | −− |  |
| Y133T: modified bouganin protein with substitution Y133T | ++ |  |
| V123D: modified bouganin protein with substitution V123D | −− |  |
| V123N: modified bouganin protein with substitution V123N | −− |  |
| V123T: modified bouganin protein with substitution V123T | +/− (within 3-fold of WT activity.) |  |
| Y133Q: modified bouganin protein with substitution Y133Q | ++ |  |
| Y133P: modified bouganin protein with substitution Y133P | −− |  |
| Y133D: modified bouganin protein with substitution Y133D | ++ |  |
| I152A: modified bouganin protein with substitution I152A | ++ |  |
| Bou157: modified bouganin with V123A, D127A, Y133Q, I152A (SEQ ID No 14) |  | Activity in luciferase assay ([1]; multiple substitution variants): ++ |

| Substance | Activity in luciferase assay ([1]; single substitution variants) | further results |
| --- | --- | --- |
| V123K: modified bouganin protein with substitution V123K | −− |  |
| V123R: modified bouganin protein with substitution V123R | −− |  |
| Y133R: modified bouganin protein with substitution Y133R | ++ |  |
| Y133N: modified bouganin protein with substitution Y133N | ++ |  |
| F155P: modified bouganin protein with substitution F155P | −− |  |
| E129G: modified bouganin protein with substitution E129G | ++ |  |
| Y133H: modified bouganin protein with substitution Y133H | ++ |  |
| E129Q: modified bouganin protein with substitution E129Q | +/− (within 3-fold of WT activity.) |  |
| V123E: modified bouganin protein with substitution V123E | −− |  |
| E129K: modified bouganin protein with substitution E129K | −− |  |
| V123P: modified bouganin protein with substitution V123P | −− |  |
| Y133E: modified bouganin protein with substitution Y133E | +/− (within 3-fold of WT activity.) |  |
| V123G: modified bouganin protein with substitution V123G | −− |  |
| I152Q: modified bouganin protein with substitution I152Q | ++ |  |
| V123A: modified bouganin protein with substitution V123A | ++ |  |
| I158P: modified bouganin protein with substitution I158P | −− |  |
| I152E: modified bouganin protein with substitution I152E | −− |  |
| Y133S: modified bouganin protein with substitution Y133S | ++ |  |
| E129R: modified bouganin protein with substitution E129R | −− |  |
| D127G: modified bouganin protein with substitution D127G | ++ |  |
| Bou156: modified bouganin with V123A, D127A, Y133N, I152A (SEQ ID No 13) |  | Activity in luciferase assay ([1]; multiple substitution variants): ++; potency in cell-free assay ([1]; when conjugated to the Fab fragment (FIG. 12)): retained its potency |
